# Laboratory results from patent US20130053358A1, “TRANSDERMALLY ABSORBABLE DONEPEZIL-CONTAINING PREPARATION” (HISAMITSU PHARMACEUTICAL CO., INC., priority 2010, published 2013).
# Counter-ions that a name gives are not always drawn.
# Tested on: human normal epidermal cells
# Assay: Production of skin irritation mediators in human three-dimensional epidermal culture model (LabCyte EPI-MODEL), ELISA
# Format: cell-based
# Text: There was used a human three-dimensional epidermal culture model in which human normal epidermal cells were multilayer-cultured (LabCyte EPI-MODEL, Japan Tissue Engineering Co., Ltd.). LabCyte is a cultured skin cultured in a transwell. For the experiment, LabCyte was used with the transwell.
# A cholesterol (Wako Pure Chemical Industries, Ltd.) was used as a test article. Donepezil hydrochloride was used as the drug. Olive oil (Wako Pure Chemical Industries, Ltd.) was used as a vehicle.
# Tests were conducted by the following group composition. • Drug Alone Group: A group with addition of 4×10^−4 M of donepezil hydrochloride alone dispersed in a vehicle, as a test solution. • Cholesterol Addition Group: A group with addition of 4×10^−4 M of donepezil hydrochloride and 1% by mass of cholesterol which were dispersed in a vehicle, as a test solution.
# The test solutions of each group were added to the cells, the culture after being incubated for 48 hours were collected, and the production amounts of skin irritation mediators were measured. PGE2, IL-1α, IL-6 and IL-8 were measured as the skin irritation mediators. The skin irritation mediators were measured by using a commercially available ELISA kit (R&D Systems, Inc.). The relative production amount of the skin irritation mediator in the Cholesterol Addition Group was calculated as below, when the production amount of the skin irritation mediators in Drug Alone Group was set to 100.
# Relative production amount=(production amount of the mediator in Cholesterol Addition Group)/(production amount of the mediator in Drug Alone Group)×100
# [1] = 4×10^−4 M donepezil hydrochloride + 1% by mass cholesterol in olive oil, 48 hours incubation
SMILES,"effect on production amounts of skin irritation mediators by donepezil hydrochloride (1% by mass cholesterol added to 4×10^−4 M donepezil hydrochloride, 48 hours)",relative production amount of skin irritation mediator IL-1α (drug alone group set to 100) [1],relative production amount of skin irritation mediator IL-6 (drug alone group set to 100) [1],relative production amount of skin irritation mediator IL-8 (drug alone group set to 100) [1],relative production amount of skin irritation mediator PGE2 (drug alone group set to 100) [1]
"CC(C)CCC[C@@H](C)[C@H]1CC[C@H]2[C@@H]3CC=C4C[C@@H](O)CC[C@]4(C)[C@H]3CC[C@]12C [cholesterol, (3β)-cholest-5-en-3-olcholest-5-en-3β-ol]",effects of decreasing the production amounts of skin irritation mediators,–,–,–,–
"COc1cc2c(cc1OC)C(=O)C(CC1CCN(Cc3ccccc3)CC1)C2 (centres unmarked) [Donepezil hydrochloride, 2-[(1-benzyl-4-piperidinyl)methyl]-5,6-dimethoxyindane-1-on]",–,0,85,59,33
